In patent US10294202B2, “Pyrrolidinones as herbicides” (FMC Corporation, priority 2013, dated 2019):

Tests used:
giant foxtail (SETFA) = test: Test H preemergence mixture test (Colby); type: in vivo, Setaria faberii; settings: for Plant response rating, Obsd., SETFA: 21 d after treatment, scale 0 to 100; for SETFA Obsd.: applied alone, 21 d, mean of three replicates, scale 0-100
Text: (§1) Colby's Equation was used to determine the herbicidal effects expected from the mixtures. Colby's Equation (Colby, S. R. “Calculating Synergistic and Antagonistic Responses of Herbicide Combinations,” Weeds, 15(1), pp 20-22 (1967)) calculates the expected additive effect of herbicidal mixtures and for two active ingredients is of the form: Pa+b=Pa+Pb−(PaPb/100)
(§2) where • Pa+b is the percentage effect of the mixture expected from additive contribution of the individual components: • Pa is the observed percentage effect of the first active ingredient at the same use rate as in the mixture, and • Pb is the observed percentage effect of the second active ingredient at the same use rate as in the mixture. In the following Tables, rates are shown in grams of active ingredient per hectare (g a.i./ha); “Obsd.” is the observed effect. “Exp.” is the expected effect calculated from Colby's Equation.
(§3) This test evaluated the effect of mixtures of compound 80 with several commercial herbicides on four plant species. Seeds of plant species selected from corn (ZEAMD, Zea mays), soybean (GLXMA, Glycine max), waterhemp (common waterhemp, AMATA, Amaranthus rudis), and giant foxtail (SETFA, Setaria faberii) were planted into a silt loam soil and treated preemergence with test chemicals formulated in a non-phytotoxic solvent mixture which included a surfactant and applied using a volume of 281 L/ha. Each treatment was replicated three times. Treated plants and controls were maintained in a greenhouse using supplemental lighting to maintain a photoperiod of about 16 h; daytime and nighttime temperatures were about 24-30° C. and 19-21° C., respectively. Nutrients were applied using a balanced fertilizer applied through the watering system. At 21 d after treatment, all species were compared to controls and visually evaluated. Plant response ratings were calculated as the means of the three replicates, are summarized in Tables H1 through H5, and are based on a scale of 0 to 100 where 0 is no effect and 100 is complete control. A dash (-) response means no test result. The Expected (Exp.) results were calculated using Colby's Equation as described for Test G above.

soybean (GLXMA) = test: Test H preemergence mixture test (Colby); type: in vivo, Glycine max; settings: for Plant response rating, Obsd., GLXMA: 21 d after treatment, scale 0 to 100; for GLXMA Obsd.: applied alone, 21 d, mean of three replicates, scale 0-100
corn (ZEAMD) = test: Test H preemergence mixture test (Colby); type: in vivo, Zea mays; settings: for Plant response rating, Obsd., ZEAMD: 21 d after treatment, scale 0 to 100; for ZEAMD Obsd.: applied alone, 21 d, mean of three replicates, scale 0-100
Text: as §1, §2, §3

waterplantain = test: Test F flood (paddy) test; type: in vivo, Alisma plantago-aquatica; settings: 21 d, scale 0-100
Text: Three plastic pots (ca. 16-cm diameter) per rate were partially filled with sterilized Tama silt loam soil comprising a 35:50:15 ratio of sand, silt and clay and 2.6% organic matter. Separate plantings for each of the three pots were as follows. Seeds from the U.S. of monochoria (Monochoria vaginalis), sedge, umbrella (small-flower umbrella sedge, Cyperus difformis), bulrush, […] bulrush, Scirpus juncoides), and […] (purple […] coccinea), were planted into one 16-cm pot for each rate. Seeds from the U.S. of flatsedge, rice (rice flatsedge, Cyperus iria), sprangletop, Brdd. (bearded sprangletop, Leptochloa fascicularis), one stand of 9 or 10 water seeded rice seedlings (Rice, W.S. Jap, Oryza sativa cv. 'Japonica-[…]' or Rice, W.S. Ind, 'Indica'), and two stands of 3 or 4 seedlings of rice, transplanted (transplanted rice, Oryza sativa cv. 'Japonica-[…]') were planted into one 16-cm pot for each rate. Seeds from the U.S. of barnyardgrass (Echinochloa crus-galli), […] (common […], Alisma plantago-aquatica), and watergrass, late (late watergrass, Echinochloa oryzicola) were planted into one 16-cm pot for each rate. Plantings were sequential so that crop and weed species were at the 2.0 to 2.5-leaf stage at time of treatment. Potted plants were grown in a greenhouse with day/night temperature settings of 30/27° C., and supplemental balanced lighting was provided to maintain a 16-h photoperiod. Test pots were maintained in the greenhouse until test completion. At time of treatment, test pots were flooded to 3 cm above the soil surface, treated by application of test compounds directly to the paddy water, and then maintained at that water depth for the duration of the test. Effects of treatments on rice and weeds were visually evaluated by comparison to untreated controls after 21 d. Plant response ratings, summarized in Table F, are based on a scale of 0 to 100 where 0 is no effect and 100 is complete control. A dash (-) response means no test result.

Row | SMILES | Plant response rating, Obsd., SETFA (giant foxtail (SETFA); Cmpd 80 alone 62 g a.i./ha) | Plant response rating, Obsd., SETFA (giant foxtail (SETFA); Cmpd 80 alone 125 g a.i./ha) | SETFA Obsd. (giant foxtail (SETFA); 62 g a.i./ha) | SETFA Obsd. (giant foxtail (SETFA); 125 g a.i./ha) | Plant response rating, Obsd., GLXMA (soybean (GLXMA); Cmpd 80 alone 62 g a.i./ha) | Plant response rating, Obsd., GLXMA (soybean (GLXMA); Cmpd 80 alone 125 g a.i./ha) | GLXMA Obsd. (soybean (GLXMA); 62 g a.i./ha) | GLXMA Obsd. (soybean (GLXMA); 125 g a.i./ha) | Plant response rating, Obsd., ZEAMD (corn (ZEAMD); Cmpd 80 alone 62 g a.i./ha) | Plant response rating, Obsd., ZEAMD (corn (ZEAMD); Cmpd 80 alone 125 g a.i./ha) | ZEAMD Obsd. (corn (ZEAMD); 62 g a.i./ha) | ZEAMD Obsd. (corn (ZEAMD); 125 g a.i./ha) | Plant response rating, Waterplantain (waterplantain; 125 g ai/ha) | Plant response rating, Waterplantain (waterplantain; 250 g ai/ha) | Plant response rating, Waterplantain (waterplantain; 500 g ai/ha) | Plant response rating, Waterplantain (waterplantain; 1000 g ai/ha) | Plant response rating, Waterplantain (waterplantain; 2000 g ai/ha)
1 | O=C1NCC(c2ccc(C(F)(F)F)cc2)C1C(=O)Nc1cccc(F)c1F (centres unmarked) [Compound 80, N-(2,3-difluorophenyl)-2-oxo-4-[4-(trifluoromethyl)phenyl]-3-pyrrolidinecarboxamide] | 52 | 78 | 52 | 78 | 12 | 0 | 12 | 0 | 17 | 13 | 17 | 13 | – | – | – | – | –
2 | O=C1NCCC1C(=O)N(c1ccc(F)c(F)c1)c1ccccc1F (centres unmarked) [Compound 5, N-(3,4-difluorophenyl)-N-(2-fluorophenyl)-2-oxo-3-pyrrolidinecarboxamide] | – | – | – | – | – | – | – | – | – | – | – | – | 55 | 70 | 80 | 85 | 90
